Data reported in patent US12226412B2, “Heteroaryl-ketone fused azadecalin glucocorticoid receptor modulators” (Corcept Therapeutics, Inc., priority 2012, dated 2025).
Where two headings read alike, the source gives them in different places.

How the values were obtained:
[1] = test system: induction of TAT by dexamethasone in HepG2 cells; experiment: HepG2 tyrosine aminotransferase (TAT) assay; format: cell-based, human
Method: Example 21. HepG2 Tyrosine Aminotransferase (TAT) Assay
Glucocorticoid mediated activation of TAT occurs by transactivation of glucocorticoid response elements in the TAT promoter by glucocorticoid receptor agonist complex.
TAT activity was measured as outlined in the literature by A. Ali et al., J. Med. Chem., 2004, 47, 2441-2452.
HepG2 cells were cultured using MEME media supplemented with 10% (v/v) foetal bovine serum; 2 mM L-glutamine and 1% (v/v) NEAA at 37° C., 5%/95% (v/v) CO2/air. The HepG2 cells were counted and adjusted to yield a density of 0.125×10^6 cells/ml in RPMI 1640 without phenol red, 10% (v/v) charcoal stripped FBS, 2 mM L-glutamine and seeded at 25,000 cells/well in 200 μl into 96 well, sterile, tissue culture micro titre plates, and incubated at 37° C., 5% CO2 for 24 hours
Growth media was removed and replaced with assay media {RPMI 1640 without phenol red, 2 mM L-glutamine+10 μM forskolin}. […] Compounds were serially half log diluted in 100% (v/v) dimethylsupfoxide from a 10 mM stock.
HepG2 cells were then lysed with 30 μl of cell lysis buffer containing a protease inhibitor cocktail for 15 minutes at 4° C. 155 μl of substrate mixture was then added containing 5.4 mM Tyrosine sodium salt, 10.8 mM alpha ketoglutarate and 0.06 mM pyridoxal 5′ phosphate in 0.1M potassium phosphate buffer (pH 7.4). After 2 hours incubation at 37° C. the reaction was terminated by the addition of 15 μl of 10M aqueous potassium hydroxide solution, and the plates incubated for a further 30 minutes at 37° C. The TAT activity product was measured by absorbance at […].
[compound] and fitting the data to a 4 parameter logistic equation.

[2] = target: T1, human recombinant GR (Homo sapiens, UniProt P04150); experiment: Human glucocorticoid receptor (GR) fluorescence polarisation (FP) binding assay
T1 construct: purchased PanVera P2812
T1 sequence (P04150 1-777): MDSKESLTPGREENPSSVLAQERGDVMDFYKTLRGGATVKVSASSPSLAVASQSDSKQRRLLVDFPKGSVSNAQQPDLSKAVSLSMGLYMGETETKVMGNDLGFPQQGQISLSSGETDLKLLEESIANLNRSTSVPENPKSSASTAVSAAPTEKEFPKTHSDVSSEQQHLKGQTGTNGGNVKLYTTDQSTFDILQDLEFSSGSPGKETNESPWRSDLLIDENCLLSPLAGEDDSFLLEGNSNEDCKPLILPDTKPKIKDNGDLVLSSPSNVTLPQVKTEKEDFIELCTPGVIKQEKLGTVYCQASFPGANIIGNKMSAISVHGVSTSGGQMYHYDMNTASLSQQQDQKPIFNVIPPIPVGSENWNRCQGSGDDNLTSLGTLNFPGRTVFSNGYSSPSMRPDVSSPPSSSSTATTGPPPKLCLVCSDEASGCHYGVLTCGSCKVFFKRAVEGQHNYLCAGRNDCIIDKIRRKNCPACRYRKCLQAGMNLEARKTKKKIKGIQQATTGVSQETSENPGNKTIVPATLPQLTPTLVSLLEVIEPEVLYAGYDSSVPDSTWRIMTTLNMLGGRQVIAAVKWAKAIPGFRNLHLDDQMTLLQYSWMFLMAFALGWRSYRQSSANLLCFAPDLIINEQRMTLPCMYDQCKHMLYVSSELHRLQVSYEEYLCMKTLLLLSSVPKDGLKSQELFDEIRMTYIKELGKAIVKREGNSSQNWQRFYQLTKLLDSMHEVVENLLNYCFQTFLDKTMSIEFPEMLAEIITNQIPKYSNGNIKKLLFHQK
Method: Human Glucocorticoid Receptor (GR) Fluorescence Polarisation (FP) Binding Assay
The following is a description of a FP assay for measuring compound inhibition of labelled glucocorticoid binding to the human recombinant GR.
The binding affinity of test compounds was determined using a FP binding assay using human recombinant GR (PanVera P2812) and a fluorescent labelled glucocorticoid ligand (Fluorome GS Red) (PanVera P2894). The presence of inhibitors prevents the formation of a GS Red/GR complex resulting in a decrease in the measured polarisation value. The change in polarisation value in the presence of test compounds is used to calculate the binding affinity of the compound for GR.
This assay was performed in 384 well, black, round-bottom, polypropylene micro titre plates in a final volume of 20 μl. The assay contained 5 μl 1 nM GR (final concentration), 5 μl 0.5 nM Fluorome GS Red (final concentration) in the presence of 10 μl test compounds. Positive control wells (high polarisation) receive, 10 μl 2% (v: v) DMSO vehicle (1% (v/v) final concentration)+5 μl 1 nM GR and 5 μl 0.5 nM Fluorome GS Red. […] Assay blank background wells (used for normalisation) receive 15 μl 1× GS screening buffer+5 μl GR.
Compounds were prepared as solubilised solids at 10 mM in DMSO. On the day of assay, an 8 point half-log serial dilution (55 μl DMSO+25 μl compound solution) was prepared. A 1:50 dilution (1 μl compound solution+49 μl 1× GR screening buffer) was prepared for each compound. The compounds were prepared at 2× final assay concentration.
The plates were mixed and incubated for 4 hour at room temperature.
10× GR screening buffer (100 mM potassium phosphate pH 7.4, 200 mM Na2MoO4, 1 mM EDTA, 20% (v/v) DMSO). To prepare 1× GR screening buffer, combine 1 ml 10× GR screening buffer (PanVera P2814)+1 ml stabilising peptide (PanVera P2815)+7.95 ml 4° C. MQ water. Add 50 μl 1M DTT, vortex and place on ice until use.

[3] = HepG2 cells, challenge of 100 nM dexamethasone, Ki from IC50 by Cheng and Prusoff equation
[4] = human recombinant GR, fluorescence polarisation binding assay, read-out: GR binding

Compound | Ki [1, 3] | Ki [2, 4] | Ki [1] | Ki [2]
O=C(c1cc(C(F)(F)F)ccn1)[C@]12Cc3cnn(-c4ccc(F)cc4)c3C=C1CCN(S(=O)(=O)c1cn[nH]c1)C2 [Example 11BO, (R)-(6-((1H-pyrazol-4-yl)sulfonyl)-1-(4-fluorophenyl)-4,4a,5,6,7,8-hexahydro-1H-pyrazolo[3,4-g]isoquinolin-4a-yl)(4-(trifluoromethyl)pyridin-2-yl)methanone] | < 20 nM | < 0.5 nM | – | –
Cc1cnc(C(=O)[C@]23Cc4cnn(-c5ccc(F)cc5)c4C=C2CCN(S(=O)(=O)c2cccc(C(F)(F)F)c2)C3)s1 [Example 12L, (R)-(1-(4-fluorophenyl)-6-((3-(trifluoromethyl)phenyl)sulfonyl)-4,4a,5,6,7,8-hexahydro-1H-pyrazolo[3,4-g]isoquinolin-4a-yl)(5-methylthiazol-2-yl)methanone] | < 20 nM | < 0.5 nM | – | –
CCCn1cc(S(=O)(=O)N2CCC3=Cc4c(cnn4-c4ccc(F)cc4)C[C@]3(C(=O)c3cscn3)C2)cn1 [Example 11CZ, (R)-(1-(4-fluorophenyl)-6-((1-propyl-1H-pyrazol-4-yl)sulfonyl)-4,4a,5,6,7,8-hexahydro-1H-pyrazolo[3,4-g]isoquinolin-4a-yl)(thiazol-4-yl)methanone] | < 20 nM | < 0.5 nM | – | –
Cc1ccnc(C(=O)[C@]23Cc4cnn(-c5ccc(F)cc5)c4C=C2CCN(S(=O)(=O)c2cc(C)nn2C)C3)c1 [Example 11BA, (R)-(6-((1,3-dimethyl-1H-pyrazol-5-yl)sulfonyl)-1-(4-fluorophenyl)-4,4a,5,6,7,8-hexahydro-1H-pyrazolo[3,4-g]isoquinolin-4a-yl)(4-methylpyridin-2-yl)methanone] | < 20 nM | < 0.5 nM | – | –
Cc1ccnc(C(=O)[C@]23Cc4cnn(-c5ccc(F)cc5)c4C=C2CCN(S(=O)(=O)c2cccc(S(C)(=O)=O)c2)C3)c1 [Example 11AP, (R)-(1-(4-fluorophenyl)-6-((3-(methylsulfonyl)phenyl)sulfonyl)-4,4a,5,6,7,8-hexahydro-1H-pyrazolo[3,4-g]isoquinolin-4a-yl)(4-methylpyridin-2-yl)methanone] | < 20 nM | < 0.5 nM | – | –
O=C(c1nccs1)[C@]12Cc3cnn(-c4ccc(F)cc4)c3C=C1CCN(S(=O)(=O)c1cncc(N3CCCCC3)c1)C2 [Example 7, (R)-(1-(4-fluorophenyl)-6-((5-(piperidin-1-yl)pyridin-3-yl)sulfonyl)-4,4a,5,6,7,8-hexahydro-1H-pyrazolo[3,4-g]isoquinolin-4a-yl)(thiazol-2-yl)methanone] | 20 to 100 nM | < 0.5 nM | – | –
O=C(c1cccs1)[C@]12Cc3cnn(-c4ccc(F)cc4)c3C=C1CCN(S(=O)(=O)c1ccc(C(F)(F)F)cc1)C2 [Example 1H, (R)-(1-(4-fluorophenyl)-6-((4-(trifluoromethyl)phenyl)sulfonyl)-4,4a,5,6,7,8-hexahydro-1H-pyrazolo[3,4-g]isoquinolin-4a-yl)(thiophen-2-yl)methanone] | – | – | 20 to 100 nM | < 0.5 nM
Cn1cc(S(=O)(=O)N2CCC3=Cc4c(cnn4-c4ccc(F)cc4)C[C@]3(C(=O)c3ccccn3)C2)ccc1=O [Example 17, (R)-5-((1-(4-fluorophenyl)-4a-picolinoyl-4a,5,7,8-tetrahydro-1H-pyrazolo [3,4-g]isoquinolin-6 (4H)-yl)sulfonyl)-1-methylpyridin-2 (1H)-one] | ≥ 100 nM | – | – | –
Cc1cnc(C(=O)[C@]23Cc4cnn(-c5ccc(F)cc5)c4C=C2CCN(S(=O)(=O)c2ccc(Cl)c(Cl)c2)C3)s1 [Example 12O, (R)-(6-((3,4-dichlorophenyl)sulfonyl)-1-(4-fluorophenyl)-4,4a,5,6,7,8-hexahydro-1H-pyrazolo[3,4-g]isoquinolin-4a-yl)(5-methylthiazol-2-yl)methanone] | – | < 0.5 nM | – | –
O=C(c1ccccn1)[C@]12Cc3cnn(-c4ccc(F)cc4)c3C=C1CCN(S(=O)(=O)c1cncc(N3CCCCC3)c1)C2 [Example 10A, (R)-(1-(4-fluorophenyl)-6-((5-(piperidin-1-yl)pyridin-3-yl)sulfonyl)-4,4a,5,6,7,8-hexahydro-1H-pyrazolo[3,4-g]isoquinolin-4a-yl)(pyridin-2-yl)methanone] | – | < 0.5 nM | – | –
